# Target: T1, human TLR7 (Homo sapiens, UniProt Q9NYK1)
# T1 sequence (Q9NYK1 27-1049): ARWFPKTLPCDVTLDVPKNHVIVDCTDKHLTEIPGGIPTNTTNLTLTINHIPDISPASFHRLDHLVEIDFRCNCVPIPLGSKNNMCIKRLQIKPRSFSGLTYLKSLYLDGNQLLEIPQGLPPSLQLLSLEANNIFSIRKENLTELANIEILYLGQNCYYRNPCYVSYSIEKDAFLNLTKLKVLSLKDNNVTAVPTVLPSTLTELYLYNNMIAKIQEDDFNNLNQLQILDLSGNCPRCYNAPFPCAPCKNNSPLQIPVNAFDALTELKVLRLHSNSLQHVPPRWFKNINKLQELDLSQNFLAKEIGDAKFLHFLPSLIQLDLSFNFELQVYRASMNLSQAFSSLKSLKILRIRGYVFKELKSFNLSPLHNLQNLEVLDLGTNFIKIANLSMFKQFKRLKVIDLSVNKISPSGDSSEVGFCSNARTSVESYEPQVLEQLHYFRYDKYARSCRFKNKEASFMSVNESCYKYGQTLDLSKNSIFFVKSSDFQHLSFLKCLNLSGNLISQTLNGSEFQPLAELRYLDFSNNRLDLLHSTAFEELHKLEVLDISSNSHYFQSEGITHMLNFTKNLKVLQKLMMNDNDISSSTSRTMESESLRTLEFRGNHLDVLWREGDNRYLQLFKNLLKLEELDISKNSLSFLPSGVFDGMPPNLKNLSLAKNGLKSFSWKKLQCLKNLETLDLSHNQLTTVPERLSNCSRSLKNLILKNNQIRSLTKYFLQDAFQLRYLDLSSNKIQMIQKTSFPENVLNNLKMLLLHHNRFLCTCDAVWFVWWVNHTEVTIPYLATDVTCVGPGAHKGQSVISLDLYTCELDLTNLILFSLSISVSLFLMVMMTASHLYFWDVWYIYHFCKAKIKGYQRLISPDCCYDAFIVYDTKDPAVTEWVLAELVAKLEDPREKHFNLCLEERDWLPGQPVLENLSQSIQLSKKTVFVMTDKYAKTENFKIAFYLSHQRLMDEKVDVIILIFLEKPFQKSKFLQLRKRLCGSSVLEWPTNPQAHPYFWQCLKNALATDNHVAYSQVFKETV
# Assay: HEK293-Blue-hTLR-7 cells assay
# Type: cell-based
# Details: HEK293-Blue-hTLR7 cells, R848 stimulation, 20 hrs, SEAP reporter; read-out: HEK/hTLR7 IC50
# Outline: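 HEK293-Blue-hTLR7 cells (NF-κB/AP-1-driven SEAP reporter) incubated with serially diluted compound (1% DMSO final) and R848 agonist for 20 h at 37 °C. Supernatant SEAP measured with QUANTI-Blue (2 h, 37 °C) by absorbance at 620-655 nm; antagonism seen as reduced reporter.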
row,Compound,IC50 [nM]
1,"C[C@@H]1CN(c2ccc(C#N)c3ncccc23)C[C@@H]2c3ccc(N4CC[C@@H](N)C4)cc3CN12 [Example 20, 5-[(4R,10bS)-8-[(3R)-3-aminopyrrolidin-1-yl]-4-methyl-3,4,6,10b-tetrahydro-1H-pyrazino[2,1-a]isoindol-2-yl]quinoline-8-carbonitrile]",3.4
2,"CO[C@@H]1CN(c2ccc3c(c2)CN2[C@H](C)CN(c4ccc(C#N)n5nccc45)C[C@H]32)C[C@H]1N [Example 94, 4-[(4R,10bS)-8-[(3R,4R)-3-amino-4-methoxy-pyrrolidin-1-yl]-4-methyl-3,4,6,10b-tetrahydro-1H-pyrazino[2,1-a]isoindol-2-yl]pyrazolo[1,5-a]pyridine-7-carbonitrile]",13.7
3,"COC12CNCC1CN(c1ccc3c(c1)CN1[C@H](C)CN(c4ccc(C#N)c5ncccc45)C[C@H]31)C2 (stereo partly drawn) [Example 41, 5-[(4R,10bS)-8-(3a-methoxy-1,2,3,4,6,6a-hexahydropyrrolo[3,4-c]pyrrol-5-yl)-4-methyl-3,4,6,10b-tetrahydro-1H-pyrazino[2,1-a]isoindol-2-yl]quinoline-8-carbonitrile]",< 3.2
4,"C[C@@H]1CN(c2ccc(C#N)c3ncccc23)C[C@@H]2c3ccc(N4C[C@@H](N)[C@H](F)C4)cc3CN12 [Example 48, 5-[(4R,10bS)-8-[(3R,4R)-3-amino-4-fluoro-pyrrolidin-1-yl]-4-methyl-3,4,6,10b-tetrahydro-1H-pyrazino[2,1-a]isoindol-2-yl]quinoline-8-carbonitrile]",5.8
5,"CO[C@@H]1CN(c2ccc3c(c2)CN2[C@H](C)CN(c4ccc(C#N)n5nccc45)C[C@H]32)CC[C@H]1N [Example 104, 4-[(4R,10bS)-8-[(3R,4R)-4-amino-3-methoxy-1-piperidyl]-4-methyl-3,4,6,10b-tetrahydro-1H-pyrazino[2,1-a]isoindol-2-yl]pyrazolo[1,5-a]pyridine-7-carbonitrile]",6.1
6,"C[C@@H]1CN(c2ccc(C#N)c3ncccc23)C[C@@H]2c3ccc(N4C[C@H](N)[C@@H](F)C4)cc3CN12 [Example 49, 5-[(4R,10bS)-8-[(3S,4S)-3-amino-4-fluoro-pyrrolidin-1-yl]-4-methyl-3,4,6,10b-tetrahydro-1H-pyrazino[2,1-a]isoindol-2-yl]quinoline-8-carbonitrile]",4.5
7,"C[C@@H]1CN(c2ccc(C#N)c3ncccc23)C[C@@H]2c3ccc(N4C[C@H](N)[C@@H](O)C4)cc3CN12 [Example 40A, 5-[(4R,10bS)-8-[(3S,4S)-3-amino-4-hydroxy-pyrrolidin-1-yl]-4-methyl-3,4,6,10b-tetrahydro-1H-pyrazino[2,1-a]isoindol-2-yl]quinoline-8-carbonitrile]",3.7
8,"C[C@@H]1CN(c2ccc(C#N)n3nccc23)C[C@@H]2c3ccc(N4C[C@H](N)[C@@](C)(O)C4)cc3CN12 [Example 109, 4-[(4R,10bS)-8-[(3S,4S)-4-amino-3-hydroxy-3-methyl-pyrrolidin-1-yl]-4-methyl-3,4,6,10b-tetrahydro-1H-pyrazino[2,1-a]isoindol-2-yl]pyrazolo[1,5-a]pyridine-7-carbonitrile]",28.1
9,"C[C@@H]1CN(c2ccc(C#N)c3ncccc23)C[C@@H]2c3ccc(N4C[C@H]5NCCO[C@@H]5C4)cc3CN12 [Example 44, 5-[(4R,10bS)-4-methyl-8-[(4aR,7aR)-3,4,4a,5,7,7a-hexahydro-2H-pyrrolo[3,4-b][1,4]oxazin-6-yl]-3,4,6,10b-tetrahydro-1H-pyrazino[2,1-a]isoindol-2-yl]quinoline-8-carbonitrile]",19.1
10,"C[C@@H]1CN(c2ccc(C#N)c3ncsc23)C[C@@H]2c3ccc(N4CCNCC4)cc3CN12 [Example 6, 7-[(4R,10bS)-4-methyl-8-piperazin-1-yl-3,4,6,10b-tetrahydro-1H-pyrazino[2,1-a]isoindol-2-yl]-1,3-benzothiazole-4-carbonitrile]",< 3.2
11,"C[C@@H]1CN(c2ccc(C#N)c3ncccc23)C[C@@H]2c3ccc(N4CCC(C)(N)CC4)cc3CN12 [Example 51, 5-[(4R,10bS)-8-(4-amino-4-methyl-1-piperidyl)-4-methyl-3,4,6,10b-tetrahydro-1H-pyrazino[2,1-a]isoindol-2-yl]quinoline-8-carbonitrile]",1.4
12,"C[C@@H]1CN(c2ccc(C#N)c3ncccc23)C[C@@H]2c3ccc(N4CC(N)C5(COC5)C4)cc3CN12 (stereo partly drawn) [Example 18, 5-[(4R,10bS)-8-(5-amino-2-oxa-7-azaspiro[3.4]octan-7-yl)-4-methyl-3,4,6,10b-tetrahydro-1H-pyrazino[2,1-a]isoindol-2-yl]quinoline-8-carbonitrile]",4.9
13,"C[C@@H]1CN(c2ccc3c(c2)CN2[C@H](C)CN(c4ccc(C#N)n5nccc45)C[C@H]32)CCN1 [Example 97, 4-[(4R,10bS)-4-methyl-8-[(3R)-3-methylpiperazin-1-yl]-3,4,6,10b-tetrahydro-1H-pyrazino[2,1-a]isoindol-2-yl]pyrazolo[1,5-a]pyridine-7-carbonitrile]",5
14,"C[C@@H]1CN(c2ccc(C#N)c3ncccc23)C[C@@H]2c3ccc(N4CC(N)C4)cc3CN12 [Example 22, 5-[(4R,10bS)-8-(3-aminoazetidin-1-yl)-4-methyl-3,4,6,10b-tetrahydro-1H-pyrazino[2,1-a]isoindol-2-yl]quinoline-8-carbonitrile]",< 3.2
15,"C[C@@H]1CN(c2ccc(C#N)c3ncccc23)C[C@@H]2c3ccc(N4CCOC5CNCC54)cc3CN12 (stereo partly drawn) [Example 52, 5-[(4R,10bS)-8-(3,4a,5,6,7,7a-hexahydro-2H-pyrrolo[3,4-b][1,4]oxazin-4-yl)-4-methyl-3,4,6,10b-tetrahydro-1H-pyrazino[2,1-a]isoindol-2-yl]quinoline-8-carbonitrile]",8.5

# Further lines, results first:
row,IC50 [nM],Compound
1,5.7,"C[C@@H]1CN(c2ccc(C#N)c3ncccc23)C[C@@H]2c3ccc(N4CCOC[C@@H](N)C4)cc3CN12 [Example 54B, 5-[(4R,10bS)-8-[(6S)-6-amino-1,4-oxazepan-4-yl]-4-methyl-3,4,6,10b-tetrahydro-1H-pyrazino[2,1-a]isoindol-2-yl]quinoline-8-carbonitrile]"
2,3.1,"[2H]c1ccc2c(N3C[C@@H](C)N4Cc5cc(N6CC(C)(N)C6)ccc5[C@H]4C3)ccc(C#N)c2n1 [Example 92, 5-[(4R,10bS)-8-(3-amino-3-methyl-azetidin-1-yl)-4-methyl-3,4,6,10b-tetrahydro-1H-pyrazino[2,1-a]isoindol-2-yl]-2-deuterio-quinoline-8-carbonitrile]"
3,4,"CN[C@@H]1CN(c2ccc3c(c2)CN2[C@H](C)CN(c4ccc(C#N)c5ncccc45)C[C@H]32)C[C@H]1O [Example 43, 5-[(4R,10bS)-4-methyl-8-[(3R,4R)-3-hydroxy-4-(methylamino)pyrrolidin-1-yl]-3,4,6,10b-tetrahydro-1H-pyrazino[2,1-a]isoindol-2-yl]quinoline-8-carbonitrile]"
4,< 3.2,"C[C@@H]1CN(c2ccc(C#N)c3ncccc23)C[C@@H]2c3ccc(N[C@@H]4CNC[C@H]4F)cc3CN12 [Example 33, 5-[(4R,10bS)-8-[[(3R,4R)-4-fluoropyrrolidin-3-yl]amino]-4-methyl-3,4,6,10b-tetrahydro-1H-pyrazino[2,1-a]isoindol-2-yl]quinoline-8-carbonitrile]"
5,< 3.2,"CN[C@H]1CN(c2ccc3c(c2)CN2[C@H](C)CN(c4ccc(C#N)c5ncccc45)C[C@H]32)C[C@@H]1O [Example 42, 5-[(4R,10bS)-8-[(3S,4S)-3-hydroxy-4-(methylamino)pyrrolidin-1-yl]-4-methyl-3,4,6,10b-tetrahydro-1H-pyrazino[2,1-a]isoindol-2-yl]quinoline-8-carbonitrile]"
6,8.9,"C[C@@H]1CN(c2ccc(C#N)c3ncccc23)C[C@@H]2c3ccc(N4CCNC[C@@H](O)C4)cc3CN12 [Example 53B, 5-[(4R,10bS)-8-[(6R)-6-hydroxy-1,4-diazepan-1-yl]-4-methyl-3,4,6,10b-tetrahydro-1H-pyrazino[2,1-a]isoindol-2-yl]quinoline-8-carbonitrile]"
7,7.7,"C[C@@H]1CN(c2ccc(C#N)c3ncccc23)C[C@@H]2c3ccc(N4CCNC[C@](C)(O)C4)cc3CN12 [Example 55A, 5-[(4R,10bS)-8-[(6S)-6-hydroxy-6-methyl-1,4-diazepan-1-yl]-4-methyl-3,4,6,10b-tetrahydro-1H-pyrazino[2,1-a]isoindol-2-yl]quinoline-8-carbonitrile]"
